Inhibition data for six compounds are collected here from patent publication US7018642B2 (The Procter & Gamble Company, priority 2001, dated 2006).

Common to all, as to assay type: cell-based
For assay [1], the system named is S. epidermidis strain ATCC 35984. The experiment in a line: Improved biofilm dispersion screen (already-formed biofilms, crystal violet). The settings on record: Staphylococcus epidermidis, ATCC35984, no NaOH, positive = dispersion, negative = enhancement of pre-existing biofilm, quadruplicate, read-out: average percentage reduction of biofilm relative to the two control values (dispersion). Put shortly: (§1)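 Biofilms were grown 24 h in duplicate plates without compound; one plate was crystal violet-stained for t0. On the other, fresh medium plus compound at 390 μM final was added for 22–26 h more, with DMSO controls giving t24. Value: average % biofilm reduction versus t0 and t24, quadruplicates.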

Assay [2] relates to P. fluorescens strain ATCC 13525. The description is as above. The settings on record: Pseudomonas fluorescens, ATCC13525, 20 mM NaOH step, positive = dispersion, negative = enhancement of pre-existing biofilm, quadruplicate, read-out: average percentage reduction of biofilm relative to the two control values (dispersion). The method, boiled down:
as §1

The subject of assay [3] is P. aeruginosa strain PAO1. Described as above. The settings on record: Pseudomonas aeruginosa, 30 mM NaOH step, positive = dispersion, negative = enhancement of pre-existing biofilm, quadruplicate, read-out: average percentage reduction of biofilm relative to the two control values (dispersion). The method, boiled down: as §1
Assay [4] deals with S. epidermidis strain ATCC 35984. Description: Biofilm prevention screen (96-well microplate, crystal violet). The conditions noted are these: Staphylococcus epidermidis, positive = prevention, negative = enhancement of biofilm formation, quadruplicate, read-out: average percentage reduction of biofilm formed relative to DMSO controls; for inhibition at 32 µM: ATCC35984, 32 μM; for inhibition at 160 µM: ATCC35984, 160 μM; for inhibition at 390 µM: ATCC35984, 390 μM. The method, boiled down: (§2)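 Biofilm prevention is scored as percent decrease in CV-stained biomass relative to DMSO controls after 16–26 hours' growth with compound at final 250–500, 160 or 32 μM. Incubation was 30° C for both Pseudomonas strains and 37° C for S. epidermidis, with shaking.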

The test system of assay [5] is P. fluorescens strain ATCC 13525. The description is as above. The settings on record: Pseudomonas fluorescens, positive = prevention, negative = enhancement of biofilm formation, quadruplicate, read-out: average percentage reduction of biofilm formed relative to DMSO controls; for inhibition at 32 µM: ATCC13525, 32 μM; for inhibition at 160 µM: ATCC13525, 160 μM; for inhibition at 390 µM: ATCC13525, 390 μM. Put shortly: as §2

In assay [6] the test system is P. aeruginosa strain PAO1. The assay is described as above. The settings on record: Pseudomonas aeruginosa, positive = prevention, negative = enhancement of biofilm formation, quadruplicate, read-out: average percentage reduction of biofilm formed relative to DMSO controls. Put shortly: as §2

Turning to `CCCCCCCCNC(=O)[C@@H]1CCN1C(=O)OC(C)(C)C` [Compound 284], the inhibition at 390 µM in assay [1] was 0%; in assay [2] it was -15%; in assay [3], -79%; in assay [4] it was 56%; in assay [5], -2%; in assay [6] it was -12%. Moreover, the figures for the inhibition at 32 µM in assay [4], in assay [5] and in assay [6] were -4%, 4% and 2%, respectively. Further, the results for the inhibition at 160 µM in assay [4], in assay [5] and in assay [6] were -33%, 21% and -10%, respectively.

`CCCCCCCCCCNC(=O)[C@@H]1CCN1C(=O)OC(C)(C)C` [Compound 285, N-(tert-Butoxycarbonyl)-(S)-(−)-2-azetidinecarboxylic acid n-decyl amide]: the inhibition at 390 µM in assay [1] is 0%; in assay [2], -74%; in assay [3], -37%; in assay [4], 66%; in assay [5] it was -32%; in assay [6], -21%. In addition, the inhibition at 32 µM in assay [4] was 2%; in assay [5] it was -12%; in assay [6], 7%. In addition, the results for the inhibition at 160 µM in assay [4], in assay [5] and in assay [6] were 17%, -44% and -20%, respectively.

For `CCCCCCNC(=O)[C@@H]1CCN1` [Compound 287], the inhibition at 390 µM in assay [1] was 71%; in assay [2], -18%; in assay [3], -70%; in assay [4], 101%; in assay [5], 40%; in assay [6], -2%. The inhibition at 32 µM in assay [4] is 74%; in assay [5], -42%; in assay [6], -1%. In addition, the values for the inhibition at 160 µM in assay [4], in assay [5] and in assay [6] were 101%, -7% and 11%, respectively.

For `CCCCCCCCNC(=O)[C@@H]1CCN1` [Compound 288], the inhibition at 390 µM is 72% in assay [1]; -2% in assay [2]; -32% in assay [3]; 99% in assay [4]; 59% in assay [5]; 96% in assay [6]. Moreover, the inhibition at 32 µM was 101% in assay [4], -14% in assay [5] and 12% in assay [6]. Also, the inhibition at 160 µM was determined as 101% in assay [4], 40% in assay [5] and 97% in assay [6].

As to `CCCCCCCCCCNC(=O)[C@@H]1CCN1` [Compound 289, (S)-(−)-2-azetidinecarboxylic acid n-decyl amide], the inhibition at 390 µM was 84% in assay [1]; 19% in assay [2]; -54% in assay [3]; 101% in assay [4]; 99% in assay [5]; 77% in assay [6]. For the same compound, the inhibition at 32 µM in assay [4] was 39%; in assay [5] it was -8%; in assay [6] it was 9%. Further, the inhibition at 160 µM in assay [4] is 101%; in assay [5], 45%; in assay [6], -2%.

`CCCCCCCCCCCCNC(=O)[C@@H]1CCN1` [Compound 290]: the inhibition at 390 µM is 82% in assay [1]; 21% in assay [2]; -72% in assay [3]; 97% in assay [4]; 93% in assay [5]; 37% in assay [6]. Also, the inhibition at 32 µM in assay [4] is 101%; in assay [5], -12%; in assay [6], 6%. Also, the figures for the inhibition at 160 µM in assay [4], in assay [5] and in assay [6] were 100%, 98% and -16%, respectively.
